Source: ChEMBL document CHEMBL4482307 (2014)
Activity calls are given as the source filed them. No cut-off for these calls is given here.

How the values were obtained:
c-Myc/Max (Homo sapiens) [1] = target: T1, c-Myc/Max (Homo sapiens) (UniProt P01106+P61244); assay: (§1) Inhibition of His6-tagged homogeneously purified recombinant Myc bHLH-LZ domain (unknown origin)/His6-tagged Max (151 residues) (unknown origin) interaction assessed as reduction in Myc/Max/DNA ternary complex formation using fluorescently-tagged (FAM) E-Box-containing double-stranded oligonucleotide at 100 uM by EMSA relative to control; type: protein-complex assay
HL-60 [2] = assay: Antiproliferative activity against human HL60 cells assessed as reduction in cell proliferation incubated for 3 to 4 days by MTT assay; type: functional, cell-based
Daudi = assay: Antiproliferative activity against human Daudi cells assessed as reduction in cell proliferation incubated for 3 to 4 days by MTT assay; type: functional, cell-based
c-Myc/Max (Homo sapiens) [3] = target: T1, c-Myc/Max (Homo sapiens); assay: Inhibition of Myc/Max protein interaction in human HL60 cells assessed as reduction in Myc/Max heterodimer formation at 1 to 12 uM by co-immunoprecipitation assay; type: cell-based
HL-60 [4] = assay: Induction of cell cycle arrest in human HL60 cells assessed as accumulation at G0/G1 phase incubated for 24 to 48 hrs by propidium iodide staining based flow cytometric analysis; type: functional
HL-60 [5] = assay: Induction of cell cycle arrest in human HL60 cells assessed as accumulation at G2/M phase at 5 uM incubated for 24 to 48 hrs by propidium iodide staining based flow cytometric analysis (reference value: 14%); type: functional
HL-60 [6] = assay: Induction of cell cycle arrest in human HL60 cells assessed as accumulation at G2/M phase at 10 uM incubated for 24 to 48 hrs by propidium iodide staining based flow cytometric analysis (reference value: 14%); type: functional
HL-60 [7] = assay: Induction of cell cycle arrest in human HL60 cells assessed as accumulation at S phase at 5 uM incubated for 24 to 48 hrs by propidium iodide staining based flow cytometric analysis (reference value: 50%); type: functional
HL-60 [8] = assay: Induction of cell cycle arrest in human HL60 cells assessed as accumulation at G0/G1 phase at 10 uM incubated for 24 to 48 hrs by propidium iodide staining based flow cytometric analysis (reference value: 36%); type: functional
[9] = target: Myc proto-oncogene protein (Homo sapiens) (UniProt P01106); assay: Inhibition of Myc in human HL60 cells co-transfected with Myc-responsive E-box elements assessed as reduction c-Myc promoter-mediated luciferase expression at 10 to 50 uM after 6 hrs; type: cell-based
HL-60 [10] = assay: Induction of cell cycle arrest in human HL60 cells assessed as accumulation at G0/G1 phase at 5 uM incubated for 24 to 48 hrs by propidium iodide staining based flow cytometric analysis (reference value: 36%); type: functional
HL-60 [11] = assay: Induction of cell cycle arrest in human HL60 cells assessed as accumulation at S phase at 10 uM incubated for 24 to 48 hrs by propidium iodide staining based flow cytometric analysis (reference value: 50%); type: functional
c-Myc/Max = c-Myc/Max (Homo sapiens, UniProt P01106); assay: as §1, with “oligonucleotide” for “oligonucleotide at 100 uM”; type: protein-complex assay
[12] = Half life in plasma (unknown origin); type: ADME, cell-free

## O=[N+]([O-])c1ccc(Nc2ccccc2Br)c2nonc12
c-Myc/Max (Homo sapiens) [1]
  inhibition: 39%

## CC(=O)OCOC(=O)c1ccc(Nc2ccc([N+](=O)[O-])c3nonc23)cc1
HL-60 [2]
  IC50: 31.9 µM
Daudi
  IC50: 30.7 µM

## CC(C)OC(=O)c1ccc(Nc2ccc([N+](=O)[O-])c3nonc23)cc1
HL-60 [2]
  IC50: 9.3 µM
Daudi
  IC50: 3.1 µM

## COC(=O)c1ccc(Nc2ccc([N+](=O)[O-])c3nonc23)cc1
HL-60 [2]
  IC50: 20 µM
Daudi
  IC50: 7.8 µM

## CCOC(=O)c1ccc(Nc2ccc([N+](=O)[O-])c3nonc23)cc1
HL-60 [2]
  IC50: > 25 µM
Daudi
  IC50: 7.4 µM

## O=C(OCC(F)(F)F)c1ccc(Nc2ccc([N+](=O)[O-])c3nonc23)cc1
HL-60 [2]
  IC50: 8.5 µM
Daudi
  IC50: 1.9 µM
c-Myc/Max (Homo sapiens) [3]
  inhibition: Active

## O=C(OCc1ccccc1)c1ccc(Nc2ccc([N+](=O)[O-])c3nonc23)cc1
HL-60 [2]
  IC50: 7.2 µM
Daudi
  IC50: 3.5 µM

## COC(=O)c1ccc(Nc2ccc([N+](=O)[O-])c3nonc23)c(-c2ccc(C)cc2)c1
HL-60 [4]
  Activity: Dose-dependent effect
HL-60 [5]
  Activity: 12%
HL-60 [6]
  Activity: 17%
HL-60 [7]
  Activity: 44%
HL-60 [8]
  Activity: 59.5%
[9]
  inhibition: Active
HL-60 [10]
  Activity: 44%
HL-60 [11]
  Activity: 23%

## O=C(Oc1ccccc1)c1ccc(Nc2ccc([N+](=O)[O-])c3nonc23)cc1
c-Myc/Max
  IC50: 39.7 µM
Daudi
  IC50: 2.5 to 3.1 µM
c-Myc/Max (Homo sapiens) [3]
  inhibition: Active

## O=C(O)c1cc([N+](=O)[O-])ccc1Nc1ccccc1-c1ccccc1
c-Myc/Max (Homo sapiens) [1]
  inhibition: 49%

## O=C(O)c1ccc(Nc2ccc([N+](=O)[O-])c3nonc23)cc1
c-Myc/Max (Homo sapiens) [1]
  inhibition: 93 to 94%

## O=[N+]([O-])c1ccc(Nc2cccc(-c3ccccc3)c2)c2nonc12
c-Myc/Max (Homo sapiens) [1]
  inhibition: 20%

## O=[N+]([O-])c1ccc(Nc2ccccc2-c2ccccc2)c2nonc12
[12]
  half-life: 37 min
c-Myc/Max (Homo sapiens) [1]
  inhibition: 38 to 39%
